According to patent US4046904A, “Novel penicillin, and its preparation and use” (Sumitomo Chemical Company, Limited, priority 1975, dated 1977):
Values after ≈ are worked out from the molar mass of the structure shown. Read-outs that look alike come from different tables or passages of the source.

How the values were obtained:
[1] = solubility in pharmaceutical diluents; format: physicochemical; settings: e.g. water; relative to said penicillins
Klebsiella pneumoniae [2] = test: MIC, nutrient broth dilution (Table 5); format: cell-based; settings: Klebsiella pneumoniae strain No. 1, sodium salt
Description: (§1) The relative activities of Compound (I) and Compound (C) against various intraperitioneal infections in mice evaluated by the minimum inhibitory concentrations and the means median protective doses (subcutaneously administered) are shown in Table 5.
(§2) Note: Compound (I) and Compound (C) were subjected to the test in the form of the sodium salt. For each test, five male ICR-SLC strain mice were used at each dose level. MIC was determined by the nutrient broth dilution method. In determination of PD50, subsutaneous treatment was carried out three times, i.e. 1, 3 and 5 hours after infection.

Streptococcus faecalis [3] = test: MIC, nutrient broth dilution (Table 5); format: cell-based; settings: Enterococcus faecalis, Streptococcus faecalis strain F10, sodium salt
Description: as §1, §2

Pseudomonas aeruginosa [4] = test: MIC, nutrient broth dilution (Table 5); format: cell-based; settings: Pseudomonas aeruginosa strain TS, sodium salt
Description: as §1, §2

Staphylococcus aureus [5] = test: MIC, nutrient broth dilution (Table 5); format: cell-based; settings: Staphylococcus aureus strain A24, sodium salt
Description: as §1, §2

[6] = pain when administered parenterally; format: in vivo; settings: relative to said penicillins
[7] = Protein-binding rate in human serum (Table 6); format: in vitro ADME; settings: for fraction unbound: human, serum, sodium salt
Description: The following data are related to the pharmacokinetic profiles of Compound (I) compared with Compound (C).
(§3) Note: Compound (I) and Compound (C) were subjected to the test in the form of the sodium salt.

Klebsiella pneumoniae [8] = test: Median MIC, clinical isolates, agar-plate dilution (Table 1); format: cell-based
Description: (§4) Note: Compound (I) and Compound (A) were subjected to the test in the form of the sodium salt. The minimum inhibitory concentration (MIC) was determined using the agar-plate dilution method recommended by Japan Society of Chemotherapy.

Escherichia = test: as above; format: cell-based; settings: read-out: Median minimum inhibitory concentration
Description: as §4

Proteus morganii = test: as above; format: cell-based
Description: as §4

Serratia = test: as above; format: cell-based
Description: as §4

Enterobacter aerogenes = test: as above; format: cell-based
Description: as §4

Proteus vulgaris = test: as above; format: cell-based
Description: as §4

Pseudomonas aeruginosa [9] = test: as above; format: cell-based; settings: 49 clinical isolates, sodium salt, read-out: Median minimum inhibitory concentration
Description: as §4

Staphylococcus aureus [10] = test: as above; format: cell-based; settings: 37 clinical isolates, sodium salt, read-out: Median minimum inhibitory concentration
Description: as §4

[11] = Urinary excretion rate in rats after intramuscular administration (Table 8); format: in vivo, Wistar-HLA strain rats; settings: rat, urine, im, 20 mg/kg, male rats, intramuscular 20 mg/kg, sodium salt
Description: The urinary excretion rates of Compound (I) and Compound (C) following an intramuscular administration of 20 mg/kg in male Wistar-HLA strain rats are shown in Table 8.
as §3

Klebsiella pneumoniae [12] = test: Intraperitoneal infection in mice, median protective dose (Table 5); format: in vivo
Description: as §1, §2

Streptococcus faecalis [13] = test: as above; format: in vivo
Description: as §1, §2

Pseudomonas aeruginosa [14] = test: as above; format: in vivo
Description: as §1, §2

Staphylococcus aureus [15] = test: as above; format: in vivo
Description: as §1, §2

Klebsiella pneumoniae [16] = test: Intraperitoneal infection in mice, median protective dose (Table 2); format: in vivo; settings: subcutaneous; for ED50: sc, 1 and 4 hours after infection, sodium salt, read-out: PD50
Description: (§5) Note: Compound (I), Compound (A) and Compound (B) were subjected to the test in the form of the sodium salt. For each test, eight male ICR-SLC strain mice were used at each dose level. MIC was determined by the nutrient broth dilution method. In determination of PD50, subcutaneous treatment was carried out twice, i.e. 1 and 4 hours after infection.

Escherichia coli = test: as above; format: in vivo; settings: sc, subcutaneous, 1 and 4 hours after infection, sodium salt, read-out: PD50
Description: as §5

Pseudomonas aeruginosa [17] = test: as above; format: in vivo; settings: subcutaneous; for ED50: sc, 1 and 4 hours after infection, sodium salt, read-out: PD50
Description: as §5

[18] = Serum level in mice after subcutaneous administration (Table 7); format: in vivo, ICR-SLC strain mice; settings: mouse, sc, subcutaneous 50 mg/kg, sodium salt
Description: The peak serum concentrations of Compound (I) and Compound (C) in ICR strain mice following subcutaneous administration at 50 mg/kg are shown in Table 7.
Note: Compound (I) and Compound (C) were subjected to the test in the form of the sodium salt. For the test, three male ICR-SLC strain mice were used. The bioassay was carried out according to the disc method using Bacillus subtilis.

Streptococcus faecalis [19] = test: Median MIC, clinical isolates, agar-plate dilution (Table 4); format: cell-based
Description: (§6) Note: Compound (I) and Compound (C) were subjected to the test in the form of the sodium salt. MIC was determined using the agar-plate dilution method.

Staphylococcus aureus [20] = test: as above; format: cell-based
Description: as §6

SMILES: CC1(C)S[C@@H]2[C@H](NC(=O)[C@H](NC(=O)c3ccnnc3O)c3ccc(O)cc3)C(=O)N2[C@H]1C(=O)O [Compound (I), 6-[D-2-(3-hydroxypyridazine-4-carbonamido)-2-(p-hydroxyphenyl)acetamido]penicillanic acid]
- solubility in pharmaceutical diluents [1]: higher solubility
- MIC (Klebsiella pneumoniae [2]): 6.25 µg/mL
- MIC (Streptococcus faecalis [3]): 1.56 µg/mL
- MIC (Pseudomonas aeruginosa [4]): 6.25 µg/mL
- MIC (Staphylococcus aureus [5]): 0.39 µg/mL
- pain when administered parenterally [6]: weaker pain
- protein-binding rate relative to Compound (C) ([7]; human serum): lower protein-binding rate
- fraction unbound ([7]; Ultracentrifugation method): 0.4
- fraction unbound ([7]; Ultrafiltration method): 0.42
- MIC50 (Klebsiella pneumoniae [8]; 26 clinical isolates, sodium salt, read-out: Median minimum inhibitory concentration): 21 µg/mL
- antibacterial activity relative to Compound (A) (Klebsiella pneumoniae [8]; clinical isolates): superior
- MIC50 (Escherichia): 12 µg/mL (≈ 24.6 µM)
- MIC50 (Proteus morganii; Morganella morganii, 14 clinical isolates, sodium salt, read-out: Median minimum inhibitory concentration): 4.4 µg/mL
- antibacterial activity relative to Compound (A) (Proteus morganii; clinical isolates): superior
- MIC50 (Serratia; 6 clinical isolates, sodium salt, read-out: Median minimum inhibitory concentration): 31 µg/mL
- antibacterial activity relative to Compound (A) (Serratia; clinical isolates): superior
- MIC50 (Enterobacter aerogenes; Klebsiella aerogenes, 8 clinical isolates, sodium salt, read-out: Median minimum inhibitory concentration): 25 µg/mL
- antibacterial activity relative to Compound (A) (Enterobacter aerogenes; clinical isolates): superior
- MIC50 (Proteus vulgaris; 7 clinical isolates, sodium salt, read-out: Median minimum inhibitory concentration): 8.8 µg/mL
- antibacterial activity relative to Compound (A) (Proteus vulgaris; clinical isolates): superior
- MIC50 (Pseudomonas aeruginosa [9]): 10 µg/mL
- MIC50 (Staphylococcus aureus [10]): 13 µg/mL
- dose excreted at 6 h ([11]; 0-6 hr.): 54%
- dose excreted at 24 h ([11]; 0-24 hr.): 55%
- dose excreted at 24 h ([11]; 6-24 hr.): 1%
- PD50 relative to Compound (C) (Klebsiella pneumoniae [12]; mice, subcutaneous): approximately equal
- ED50 (Klebsiella pneumoniae [12]; sc, K. pneumoniae strain No. 1, male ICR-SLC mice, subcutaneous, 1, 3 and 5 hours after infection, sodium salt, read-out: PD50): 16 mg/kg
- ED50 (Streptococcus faecalis [13]; Enterococcus faecalis, sc, S. faecalis strain F10, male ICR-SLC mice, subcutaneous, 1, 3 and 5 hours after infection, sodium salt, read-out: PD50): 1.1 mg/kg
- PD50 relative to Compound (C) (Streptococcus faecalis [13]; Streptococcus faecalis, mice, subcutaneous): markedly superior
- PD50 relative to Compound (C) (Pseudomonas aeruginosa [14]; mice, subcutaneous): inferior
- ED50 (Pseudomonas aeruginosa [14]; sc, P. aeruginosa strain TS, male ICR-SLC mice, subcutaneous, 1, 3 and 5 hours after infection, sodium salt, read-out: PD50): 22 mg/kg
- PD50 relative to Compound (C) (Staphylococcus aureus [15]; mice, subcutaneous): markedly superior
- ED50 (Staphylococcus aureus [15]; sc, S. aureus strain A24, male ICR-SLC mice, subcutaneous, 1, 3 and 5 hours after infection, sodium salt, read-out: PD50): 2 mg/kg
- PD50 relative to Compound (A) and Compound (B) (Klebsiella pneumoniae [16]; mice): markedly superior
- ED50 (Klebsiella pneumoniae [16]; K. pneumoniae strain No. 1, male ICR-SLC mice): 25 mg/kg
- ED50 (Klebsiella pneumoniae [16]; K. pneumoniae strain No. 6, male ICR-SLC mice): 36 mg/kg
- ED50 (Klebsiella pneumoniae [16]; K. pneumoniae strain No. 20, male ICR-SLC mice): 31 mg/kg
- ED50 (Escherichia coli; E. coli strain NIHJ, male ICR-SLC mice): 3.2 mg/kg
- ED50 (Escherichia coli; E. coli strain No. 37, male ICR-SLC mice): 31 mg/kg
- PD50 relative to Compound (A) and Compound (B) (Pseudomonas aeruginosa [17]; mice): markedly superior
- ED50 (Pseudomonas aeruginosa [17]; P. aeruginosa strain NC-5, male ICR-SLC mice): 22 mg/kg
- ED50 (Pseudomonas aeruginosa [17]; P. aeruginosa strain T, male ICR-SLC mice): 35 mg/kg
- concentration at 0.5 h ([18]; 1/2 hr.): 35000 ng/mL
- concentration at 0.25 h ([18]; 1/4 hr.): 69000 ng/mL
- concentration at 1 h ([18]; 1 hr.): 14000 ng/mL
- concentration at 2 h ([18]; 2 hr.): 3000 ng/mL
- MIC50 (Streptococcus faecalis [19]; Enterococcus faecalis, 23 strains, agar-plate dilution, sodium salt, read-out: Median minimum inhibitory concentration): 2 µg/mL
- antibacterial activity relative to Compound (C) (Streptococcus faecalis [19]; clinical isolates): superior
- MIC50 (Staphylococcus aureus [20]; 37 strains, agar-plate dilution, sodium salt, read-out: Median minimum inhibitory concentration): 15 µg/mL
- antibacterial activity relative to Compound (C) (Staphylococcus aureus [20]; clinical isolates): superior
